Data: article PMC6077758, “Gambogic Acid and Its Analogs Inhibit Gap Junctional Intercellular Communication” (Frontiers in Pharmacology, 2018)
Values joined by “and” are separate entries in the source; they are usually repeats but may differ in a detail not shown here. Identical values can stand only once. Blank lines part the entries; values can stand above or below the compound they belong to.

Columns and labels:
[1] = tested on: GJIC in LN215 glioma cells; assay: I-YFP GJIC assay in LN215 cells; assay type: cell-based, human; settings: for Inhibition of GJIC (in words): treated 10 min before assay, LN215 glioma cells
Protocol: The I-YFP GJIC assay was conducted as previously reported ([Lee et al., 2015], [2016]). The scheme of the assay is as follows: donor cells express SLC26A4 as an iodide transporter to allow iodide to the influx and donate iodide to acceptor cells through GJs; the acceptor cells express YFP^QL as an iodide sensor, for which the fluorescence is rapidly and sensitively quenched by iodide transferred from donor cells. A 2:1 mixture of the donor (LN215-I) and acceptor (LN215-YFP) cells were plated on 96-well plates at a density of 20,000 cells/well and grown for 24 h. After the medium was removed, the cells were treated with 100 μL of C-solution (10 mM HEPES, pH 7.4, 140 mM NaCl, 10 mM glucose, 5 mM KCl, 1 mM MgCl2, 1 mM CaCl2) containing vehicle or chemicals, as indicated. A POLARstar microplate reader (BMG Labtech, Ortenberg, Germany) equipped with an automated injector was utilized in the kinetic mode to read the YFP fluorescence of a well every 0.4 s for 10 s. An equal volume of I-solution, with the same composition as C-solution, except for the substitution of NaCl with NaI, was injected into the well 1 s after each recording was started. The % YFP quenching and % GJIC activity were calculated from a previously reported formula ([Lee et al., 2016]).
FIGURE 2 Inhibition of GJIC by GA, D-GA, and T-GA. I-YFP GJIC assay (see Materials and Methods) was conducted using LN215-I and LN215-YFP cells. The vehicle, GA (A), D-GA (B), or T-GA (C) was diluted in C-solution and applied to cells at the concentrations indicated above for 10 min before the GJIC assay. The mean % of GJIC activity ± SD of three independent experiments is presented as bar graphs.

[2] = target: T1, Cx40 (Homo sapiens, UniProt P36382); assay: I-YFP GJIC assay, LN215-Cx40 cells; assay type: cell-based; settings: 10 min treatment, best fit value ± standard error; read-out: IC50 for inhibition of Cx40-GJIC
T1 construct: expressed in transfected cells; host or cells: GJA1-null LN215 human glioma cells, lentiviral transduction (pLVX-EIBla-Cx40)
Protocol: (§1) GJA1-null LN215 cells were plated on a 24-well plate at 30% confluency, cultivated for 24 h, and transduced with 200 μL of conditioned medium containing lentivirus mixed with an equal volume of fresh growth medium for 15 h. The growth medium was refreshed followed by incubation for a further 72 h before selection with 2 μg/mL puromycin for one week.
(§2) The I-YFP GJIC assay was conducted as previously reported ([Lee et al., 2015], [2016]). The scheme of the assay is as follows: donor cells express SLC26A4 as an iodide transporter to allow iodide to the influx and donate iodide to acceptor cells through GJs; the acceptor cells express YFP^QL as an iodide sensor, for which the fluorescence is rapidly and sensitively quenched by iodide transferred from donor cells. […] A POLARstar microplate reader (BMG Labtech, Ortenberg, Germany) equipped with an automated injector was utilized in the kinetic mode to read the YFP fluorescence of a well every 0.4 s for 10 s. […] The % YFP quenching and % GJIC activity were calculated from a previously reported formula ([Lee et al., 2016]). […]
(§3) FIGURE 10 IC50 values of D-GA and CBX inhibition of GJs composed of Cx43, Cx40, or Cx30. […] The percentage of GJIC inhibition was calculated and plotted against the log [compound] […] The IC50 values were calculated using GraphPad Prism 5.

[3] = tested on: LN215 cells; assay: Measurement of DCFH oxidation (ROS); assay type: cell-based, human; settings: D-GA 20 μM 10 min, H2O2 30 min
Protocol: looseness1 LN215 cells were grown to confluency on 96-well plates, washed three times with C-solution, and treated with 100 μL C-solution containing 10 μM 2′–7′-dichlorodihydrofluorescein diacetate (DCFH-DA, Sigma-Aldrich) for 1 h; subsequently, the DCF fluorescence was measured. Chemical treatment was conducted during the DCFH-DA loading period. The DCF fluorescence value, which reflects cellular oxidative stress, was measured using a POLARstar microplate reader using excitation and emission wavelengths of 495 and 520, respectively.
FIGURE 7 No ROS generation results from D-GA treatment in LN215 cells. LN215 cells were plated in 96-well plates and grown to full confluency. After washing with C-solution, the cells were loaded with 10 μM DCFH-DA diluted in C-solution for 1 h before fluorometry. H2O2 or D-GA was added after 30 min or 10 min before the measurement, respectively. The data are the mean ± SD (n = 3). ^∗p < 0.05 (Student’s t-test).

[4] = tested on: Cx43; assay type: cell-based, human; settings: LN215-Cx43 cells
Protocol: To assess the cellular level and S368 phosphorylation status of Cx43 on cell surfaces and in whole lysates, LN215-Cx43 cells on 100 mm culture plates were biotinylated using EZ-Link^TM Sulfo-NHS-SS-Biotin (ThermoFisher Scientific, Cat. No. 21331) according to the manufacturer’s instructions followed by lysis with PBS containing 1% Triton X-100, 1x protease inhibitor cocktail (Roche), and 1x phosphatase inhibitor cocktail (Pierce). Protein concentration was determined using a BCA assay. To collect surface proteins, 500 μg of protein was bound to 20 μL of NeutrAvidin^TM Agarose (Pierce) followed by elution with 2x Laemmli sample buffer. The surface samples and 20 μg of whole lysates were analyzed using immunoblotting as previously described ([Lee et al., 2016]). To confirm the knockout of GJA1, whole lysates were prepared without surface biotinylation. […] The protein band densities were measured using ImageJ software.
FIGURE 5 Effect of D-GA treatment on surface expression and S368 phosphorylation of Cx43. […] The images before cropping are also presented in Supplementary Figures 1A–E. The relative phospho-S368 Cx43 band intensity, divided by the total Cx43 band intensity, is reflective of Cx43 S368-phosphorylation and was calculated and presented as bar graphs (B). […]

[5] = target: T2, Cx30 (Homo sapiens, UniProt O95452); assay: I-YFP GJIC assay, LN215-Cx30 cells; assay type: cell-based; settings: 10 min treatment, best fit value ± standard error; read-out: IC50 for inhibition of Cx30-GJIC
T2 construct: expressed in transfected cells; host or cells: GJA1-null LN215 human glioma cells, lentiviral transduction (pLVX-CIBla-Cx30)
Protocol: as §1, §2, §3

[6] = target: T3, Cx43 (Homo sapiens, UniProt P17302); assay: I-YFP GJIC assay, LN215-Cx43 cells; assay type: cell-based; settings: 10 min treatment, best fit value ± standard error; read-out: IC50 for inhibition of Cx43-GJIC
T3 construct: expressed in transfected cells; host or cells: GJA1-null LN215 human glioma cells, lentiviral transduction (pLVX-CIBla-Cx43)
Protocol: as §1, §2, §3

[7] = target: T4, SLC26A4 (Homo sapiens, UniProt O43511); assay: SLC26A4 inhibition (Supplementary Figure 4); assay type: cell-based
T4 construct: expressed in transfected cells
T4 sequence (O43511 1-780): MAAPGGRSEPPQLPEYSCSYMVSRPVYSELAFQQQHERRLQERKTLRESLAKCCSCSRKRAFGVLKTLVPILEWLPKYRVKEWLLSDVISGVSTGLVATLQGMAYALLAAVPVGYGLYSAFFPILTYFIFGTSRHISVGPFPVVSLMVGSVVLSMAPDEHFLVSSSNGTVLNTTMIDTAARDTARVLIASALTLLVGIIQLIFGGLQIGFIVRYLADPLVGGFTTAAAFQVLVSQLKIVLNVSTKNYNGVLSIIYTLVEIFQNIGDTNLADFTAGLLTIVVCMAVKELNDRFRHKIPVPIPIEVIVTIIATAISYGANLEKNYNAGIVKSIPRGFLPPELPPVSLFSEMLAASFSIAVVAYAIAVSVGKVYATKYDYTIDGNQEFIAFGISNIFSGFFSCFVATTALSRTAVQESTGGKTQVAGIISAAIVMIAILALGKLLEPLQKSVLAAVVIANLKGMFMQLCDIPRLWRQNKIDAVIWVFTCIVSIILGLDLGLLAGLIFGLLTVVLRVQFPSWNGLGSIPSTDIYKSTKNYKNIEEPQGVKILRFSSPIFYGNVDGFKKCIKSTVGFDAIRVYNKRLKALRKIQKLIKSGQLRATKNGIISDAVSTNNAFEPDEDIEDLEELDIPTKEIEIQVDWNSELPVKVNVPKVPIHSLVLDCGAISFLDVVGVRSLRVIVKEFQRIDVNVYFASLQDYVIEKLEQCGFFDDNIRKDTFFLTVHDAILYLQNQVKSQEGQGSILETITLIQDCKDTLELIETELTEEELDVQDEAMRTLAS

T3 sequence (P17302 2-382 limits assumed): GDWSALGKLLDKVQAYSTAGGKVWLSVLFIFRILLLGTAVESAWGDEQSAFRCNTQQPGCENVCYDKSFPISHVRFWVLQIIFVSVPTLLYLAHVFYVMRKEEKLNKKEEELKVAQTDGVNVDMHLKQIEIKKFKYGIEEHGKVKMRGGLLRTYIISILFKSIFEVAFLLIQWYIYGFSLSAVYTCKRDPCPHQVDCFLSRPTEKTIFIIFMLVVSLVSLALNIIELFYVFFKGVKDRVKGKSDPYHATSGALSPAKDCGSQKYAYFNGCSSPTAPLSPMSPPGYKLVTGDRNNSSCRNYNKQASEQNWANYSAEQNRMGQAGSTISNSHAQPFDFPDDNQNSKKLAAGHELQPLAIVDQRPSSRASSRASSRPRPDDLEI
T2 sequence (O95452 whole entry): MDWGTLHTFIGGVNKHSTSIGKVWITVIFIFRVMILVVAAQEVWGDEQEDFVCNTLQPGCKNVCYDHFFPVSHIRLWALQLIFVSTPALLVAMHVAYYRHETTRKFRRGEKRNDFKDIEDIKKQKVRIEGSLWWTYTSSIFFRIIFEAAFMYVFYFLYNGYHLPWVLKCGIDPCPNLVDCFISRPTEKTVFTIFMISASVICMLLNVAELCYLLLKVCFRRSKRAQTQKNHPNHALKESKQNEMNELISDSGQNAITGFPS
T1 sequence (P36382 whole entry): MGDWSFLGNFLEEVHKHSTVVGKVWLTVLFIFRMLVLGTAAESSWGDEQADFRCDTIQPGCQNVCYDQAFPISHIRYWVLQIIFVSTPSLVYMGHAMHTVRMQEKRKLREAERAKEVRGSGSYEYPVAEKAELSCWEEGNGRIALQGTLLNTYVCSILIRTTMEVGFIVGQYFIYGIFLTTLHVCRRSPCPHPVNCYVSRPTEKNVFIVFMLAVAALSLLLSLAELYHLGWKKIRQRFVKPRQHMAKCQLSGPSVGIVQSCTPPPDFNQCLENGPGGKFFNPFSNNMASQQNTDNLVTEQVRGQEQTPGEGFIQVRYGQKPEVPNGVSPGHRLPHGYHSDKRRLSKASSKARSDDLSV

SMILES: CC(C)=CCCC1(C)C=Cc2c(O)c3c(c(CC=C(C)C)c2O1)OC12C(=CC4CC1C(C)(C)OC2(C/C=C(/C)C(=O)O)C4O)C3=O [D-GA, dihydrogambogic acid]
% GJIC activity ([1]; 20 μM for 10 min, LN215-I and LN215-YFP cells, mean ± SD): 18.1% ± 15.7% and 17.6% ± 7.3%
% GJIC activity after washing ([1]; 20 μM for 10 min, washed, further 20 min incubation in absence of compound): 91.4% ± 2.5%
Inhibition of GJIC (in words) [1]: inhibited by these compounds in a dose-dependent manner
IC50 [2]: 5.1 µM
DCF fluorescence (cellular ROS production) [3]: did not increase DCF fluorescence
S368 phosphorylation of surface Cx43 vs vehicle ([4]; 10 min, 20 μM D-GA or 100 ng/mL PMA + 50 ng/mL EGF): did not increase S368 phosphorylation
Cx43 level on cell surfaces ([4]; 20 μM D-GA 10 min or 1 μg/mL BFA + 10 μg/mL CHX 6 h): increased threefold
IC50 [5]: 81.1 ± 1.1 µM
IC50 [6]: 13.1 ± 1.1 µM

SMILES: Cc1[nH]nc(-c2cc(S(=O)(=O)NC3CCCc4ccccc43)c(C)s2)c1C (stereo not drawn) [PDSinh-C01, reference compound]
Inhibition of SLC26A4 [7]: potently inhibited

IC50 [2]: 105 µM
IC50 [5]: 748.2 ± 1.3 µM
IC50 [6]: 5.6 ± 1.1 µM
SMILES: CC1(C)[C@@H](OC(=O)CCC(=O)O)CC[C@]2(C)[C@H]3C(=O)C=C4[C@@H]5C[C@@](C)(C(=O)O)CC[C@]5(C)CC[C@@]4(C)[C@]3(C)CC[C@@H]12 [CBX, carbenoxolone, reference compound]

SMILES: CC(=O)OCOC(=O)CN(CC(=O)OCOC(C)=O)c1ccccc1OCCOc1ccccc1N(CC(=O)OCOC(C)=O)CC(=O)OCOC(C)=O [BAPTA-AM, reference compound]
Effect of pre-treatment on GJIC activity ([1]; 5 μM BAPTA-AM 30 min, control or 20 μM D-GA-treated LN215 cells): did not change the GJIC activity

SMILES: OO [H2O2, reference compound]
DCF fluorescence (cellular ROS production) [3]: dose-dependent increase

SMILES: CC(C)=CCC[C@]1(C)C=Cc2c(O)c3c(c(CC=C(C)C)c2O1)O[C@]12C(=C[C@@H]4C[C@H]1C(C)(C)O[C@@]2(C/C=C(/C)C(=O)O)C4=O)C3=O [GA, Gambogic acid]
Inhibition of SLC26A4 [7]: did not inhibit SLC26A4
Inhibition of GJIC (in words) [1]: inhibited by these compounds in a dose-dependent manner

SMILES: CC(C)=CCCC1(C)C=Cc2c(O)c3c(c(CC=C(C)C)c2O1)OC12C(CC4CC1C(C)(C)OC2(CC=C(C)C(=O)O)C4O)C3=O (stereo not drawn) [T-GA, tetrahydrogambogic acid]
Inhibition of GJIC (in words) [1]: inhibited by these compounds in a dose-dependent manner
